Laboratory results published in ChEMBL document CHEMBL3044631, “Synthesis of 2-[4,5-dimethyl-1-(phenylamino)-1H-imidazol-2-ylthio]-N-(thiazole-2-yl)acetamide derivatives and their anticancer activities” (2013).

Key:
Type in all cases: functional
[1] = tested on: Malme-3M; assay: Anticancer activity against Homo sapiens (human) MALME-3M cells after 48 hr by SRB assay
[2] = tested on: HCT-15; assay: Anticancer activity against Homo sapiens (human) HCT15 cells after 48 hr by SRB assay; settings: HCT-15, 48 h
[3] = tested on: MDA-MB-435; assay: Anticancer activity against Homo sapiens (human) MDA-MB-435 cells after 48 hr by SRB assay; settings: MDA-MB-435, 48 h
[4] = tested on: NCI/ADR-RES; assay: Anticancer activity against Homo sapiens (human) NCI/ADR-RES cells after 48 hr by SRB assay
[5] = tested on: NCI-H522; assay: Anticancer activity against Homo sapiens (human) NCI-H522 cells after 48 hr by SRB assay; settings: NCI-H522, 48 h
[6] = tested on: COLO 205; assay: Anticancer activity against Homo sapiens (human) COLO205 cells after 48 hr by SRB assay; settings: COLO 205, 48 h
[7] = tested on: HOP-62; assay: Anticancer activity against Homo sapiens (human) HOP62 cells after 48 hr by SRB assay; settings: HOP-62, 48 h
[8] = tested on: BT-549; assay: Anticancer activity against Homo sapiens (human) BT549 cells after 48 hr by SRB assay; settings: BT-549, 48 h
[9] = tested on: HCT-116; assay: Anticancer activity against Homo sapiens (human) HCT116 cells after 48 hr by SRB assay; settings: HCT-116, 48 h
[10] = tested on: TK-10; assay: Anticancer activity against Homo sapiens (human) TK10 cells after 48 hr by SRB assay; settings: TK-10, 48 h
[11] = tested on: OVCAR-3; assay: Anticancer activity against Homo sapiens (human) OVCAR3 cells after 48 hr by SRB assay; settings: OVCAR-3, 48 h
[12] = tested on: K562; assay: Anticancer activity against Homo sapiens (human) K562 cells after 48 hr by SRB assay; settings: K562, 48 h
[13] = tested on: 786-0; assay: Anticancer activity against Homo sapiens (human) 786-0 cells after 48 hr by SRB assay; settings: 786-0, 48 h
[14] = tested on: CAKI-1; assay: Anticancer activity against Homo sapiens (human) CAKI-1 cells after 48 hr by SRB assay; settings: CAKI-1, 48 h
[15] = tested on: UACC-257; assay: Anticancer activity against Homo sapiens (human) UACC257 cells after 48 hr by SRB assay; settings: UACC-257, 48 h
[16] = tested on: M14; assay: Anticancer activity against Homo sapiens (human) M14 cells after 48 hr by SRB assay; settings: M14, 48 h
[17] = tested on: OVCAR-4; assay: Anticancer activity against Homo sapiens (human) OVCAR4 cells after 48 hr by SRB assay; settings: OVCAR-4, 48 h
[18] = tested on: UO-31; assay: Anticancer activity against Homo sapiens (human) UO31 cells after 48 hr by SRB assay; settings: UO-31, 48 h
[19] = tested on: SNB-75; assay: Anticancer activity against Homo sapiens (human) SNB75 cells after 48 hr by SRB assay; settings: SNB-75, 48 h
[20] = tested on: EKVX; assay: Anticancer activity against Homo sapiens (human) EKVX cells after 48 hr by SRB assay
[21] = tested on: DU-145; assay: Anticancer activity against Homo sapiens (human) DU145 cells after 48 hr by SRB assay; settings: DU-145, 48 h
[22] = tested on: A549; assay: Anticancer activity against Homo sapiens (human) A549/ATCC cells after 48 hr by SRB assay; settings: A549, 48 h
[23] = tested on: MDA-MB-231; assay: Anticancer activity against Homo sapiens (human) MDA-MB-231/ATCC cells after 48 hr by SRB assay; settings: MDA-MB-231, 48 h
[24] = tested on: SF-268; assay: Anticancer activity against Homo sapiens (human) SF268 cells after 48 hr by SRB assay; settings: SF-268, 48 h
[25] = tested on: SK-MEL-5; assay: Anticancer activity against Homo sapiens (human) SK-MEL-5 cells after 48 hr by SRB assay; settings: SK-MEL-5, 48 h
[26] = tested on: T47D; assay: Anticancer activity against Homo sapiens (human) T47D cells after 48 hr by SRB assay
[27] = tested on: A498; assay: Anticancer activity against Homo sapiens (human) A498 cells after 48 hr by SRB assay; settings: A498, 48 h
[28] = tested on: MDA-MB-468; assay: Anticancer activity against Homo sapiens (human) MDA-MB-468 cells after 48 hr by SRB assay; settings: MDA-MB-468, 48 h
[29] = tested on: SF-539; assay: Anticancer activity against Homo sapiens (human) SF539 cells after 48 hr by SRB assay; settings: SF-539, 48 h
[30] = tested on: ACHN; assay: Anticancer activity against Homo sapiens (human) ACHN cells after 48 hr by SRB assay
[31] = tested on: MOLT-4; assay: Anticancer activity against Homo sapiens (human) MOLT4 cells after 48 hr by SRB assay; settings: MOLT-4, 48 h
[32] = read-out: LC50 (the source's name)

Cc1nc(SCC(=O)Nc2nc(-c3ccc(Cl)cc3)cs2)n(Nc2ccccc2)c1C
GI50 [1]: 10.8 µM | TGI [1]: 37.6 µM | CC50 [1, 32]: > 100 µM | GI50 [2]: 5.74 µM | TGI [2]: 23.3 µM | CC50 [2, 32]: 76.9 µM | GI50 [3]: 3.25 µM | LC50 (concentration killing 50% of cells) [3]: > 100 µM | TGI [3]: 21.8 µM | GI50 [4]: 2.6 µM | LC50 [4]: 69.9 µM | TGI [4]: 7.18 µM | GI50 [5]: 2.54 µM | LC50 (50% lethal concentration) [5]: 66.5 µM | TGI [5]: 13.7 µM | GI50 [6]: 4.13 µM | TGI [6]: 14.5 µM | CC50 [6, 32]: 49.8 µM | GI50 [7]: 3.06 µM | LC50 [7]: 31.7 µM | TGI [7]: 9.63 µM | GI50 [8]: 7.02 µM | LC50 [8]: 51.8 µM | TGI [8]: 20.9 µM | GI50 [9]: 1.84 µM | LC50 [9]: 15.5 µM | TGI [9]: 4.62 µM | GI50 [10]: 3.65 µM | LC50 (50% lethal concentration) [10]: 40.7 µM | TGI [10]: 13.8 µM | GI50 [11]: 3 µM | LC50 (50% lethal concentration) [11]: 36.2 µM | TGI [11]: 12.1 µM | GI50 [12]: 0.12 µM | TGI [12]: > 100 µM | CC50 [12, 32]: > 100 µM | GI50 [13]: 3.6 µM | LC50 (lethal concentration 50) [13]: 38.9 µM | TGI [13]: 13.7 µM | GI50 [14]: 3.93 µM | LC50 (concentration killing 50% of cells) [14]: > 100 µM | TGI [14]: 22.6 µM | GI50 [15]: 3.07 µM | LC50 [15]: > 100 µM | TGI [15]: 17 µM | GI50 [16]: 3.69 µM | LC50 [16]: 51.2 µM | TGI [16]: 16 µM | GI50 [17]: 4.6 µM | LC50 (concentration killing 50% of starting cells) [17]: > 100 µM | TGI [17]: 22.1 µM | GI50 [18]: 3.59 µM | TGI [18]: 37.7 µM | CC50 [18, 32]: > 100 µM | GI50 [19]: 3.48 µM | LC50 [19]: 49.3 µM | TGI [19]: 16.2 µM | GI50 [20]: 1.84 µM | TGI [20]: 12.2 µM | CC50 [20, 32]: 94.1 µM | GI50 [21]: 5.64 µM | LC50 (concentration killing 50% of cells) [21]: 45.4 µM | TGI [21]: 18.7 µM | GI50 [22]: 2.9 µM | LC50 [22]: 40.1 µM | TGI [22]: 11.6 µM | GI50 [23]: 3.01 µM | TGI [23]: 15.2 µM | CC50 [23, 32]: 57.8 µM | GI50 [24]: 4.8 µM | LC50 [24]: 58.8 µM | TGI [24]: 20.1 µM | GI50 [25]: 2.24 µM | LC50 (concentration killing 50% of cells) [25]: 25.8 µM | TGI [25]: 6.31 µM | GI50 [26]: 1.4 µM | TGI [26]: 5.24 µM | CC50 [26, 32]: 34.6 µM | GI50 [27]: 2.24 µM | LC50 [27]: 35.8 µM | TGI [27]: 10.5 µM | GI50 [28]: 1.45 µM | LC50 [28]: 40.4 µM | TGI [28]: 6.27 µM | GI50 [29]: 1.9 µM | LC50 (concentration killing 50% of cells) [29]: 9.64 µM | TGI [29]: 4.27 µM | GI50 [30]: 3.67 µM | LC50 (concentration killing 50% of cells) [30]: 51.5 µM | TGI [30]: 14.1 µM | GI50 [31]: 2.51 µM | LC50 (50% lethal concentration) [31]: > 100 µM | TGI [31]: 9.94 µM
